Here are results for 20 compounds from US20240300904A1, “PYRIDAZINONES FOR THE TREATMENT OR PREVENTION OF HYPERTENSION” (UNIVERSITETET I OSLO, priority 2021, published 2024).

Data set [1] has as its target T1, human (h) natriuretic peptide receptor A (hNPR-A) (Homo sapiens, UniProt P16066).
T1 construct: expressed in transfected cells
T1 sequence (P16066 33-1061): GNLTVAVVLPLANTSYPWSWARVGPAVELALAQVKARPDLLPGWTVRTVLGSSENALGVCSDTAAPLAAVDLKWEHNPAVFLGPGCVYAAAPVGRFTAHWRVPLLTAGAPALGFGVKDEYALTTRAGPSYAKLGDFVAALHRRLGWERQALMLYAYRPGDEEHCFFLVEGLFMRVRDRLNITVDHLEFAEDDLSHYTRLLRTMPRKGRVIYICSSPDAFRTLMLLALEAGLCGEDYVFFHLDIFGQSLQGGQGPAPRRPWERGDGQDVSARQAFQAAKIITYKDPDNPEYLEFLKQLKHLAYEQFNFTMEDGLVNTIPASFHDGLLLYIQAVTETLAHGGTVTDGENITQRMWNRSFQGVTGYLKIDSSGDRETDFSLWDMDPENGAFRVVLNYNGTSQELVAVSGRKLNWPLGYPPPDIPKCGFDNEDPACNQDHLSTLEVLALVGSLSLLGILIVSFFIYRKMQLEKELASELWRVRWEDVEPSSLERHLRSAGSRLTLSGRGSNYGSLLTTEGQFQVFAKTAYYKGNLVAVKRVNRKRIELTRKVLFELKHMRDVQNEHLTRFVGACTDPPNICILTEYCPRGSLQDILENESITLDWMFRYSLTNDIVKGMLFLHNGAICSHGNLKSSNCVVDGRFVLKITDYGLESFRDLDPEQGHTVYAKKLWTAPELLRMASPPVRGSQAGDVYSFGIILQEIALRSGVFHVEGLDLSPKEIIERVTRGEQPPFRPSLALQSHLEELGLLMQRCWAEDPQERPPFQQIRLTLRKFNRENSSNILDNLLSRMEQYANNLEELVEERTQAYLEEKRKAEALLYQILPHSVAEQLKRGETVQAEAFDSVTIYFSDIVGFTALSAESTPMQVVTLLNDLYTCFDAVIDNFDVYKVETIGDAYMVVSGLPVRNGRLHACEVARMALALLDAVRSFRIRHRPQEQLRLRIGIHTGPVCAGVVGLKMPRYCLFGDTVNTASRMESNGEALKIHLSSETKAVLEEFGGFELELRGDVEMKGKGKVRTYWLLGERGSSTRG
T1 sequence (P16860 103-134 partner limits assumed): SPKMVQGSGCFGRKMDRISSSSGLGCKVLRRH
Put plainly: AlphaScreen assay for cGMP: BNP-mediated NPR-A activity (cGMP production). Type of data set: cell-based. The settings on record: conc. response of compound + 0.1 nM BNP; for EC50: NPR-A-expressing HEK293 cells, read-out: -LogEC50 (compound) (converted); for Emax: percentage of maximum BNP-mediated cGMP production, read-out: Max Response. As for the experimental part:
(§1) QBIHEK293A cells stably transfected with human (h) natriuretic peptide receptor A (hNPR-A) and hNPR-B were made as described in Bach et al., Naunyn Schmiedebergs Arch. Pharmacol. 2014; 387:5-14. Cells were grown in DMEM (Dulbecco's Modified Eagle's Medium, Gibco®, ThermoFischer Scientific) supplemented with 10% Fetal Bovine Serum (FBS), 100 U/ml penicillin, 0.1 mg/ml streptomycin, and 0.4 mg/ml G418 (geneticin) as selection antibiotic.
(§2) The AlphaScreen assay for cGMP (Perkin Elmer) was performed as described in Bach et al. (see above). NPR-A and NPR-B expressing HEK293 cells were split the day before the experiment and harvested using an EDTA solution (Versene, Invitrogen, ThermoFischer Scientific). A final concentration of 6000 cells/well was re-suspended in stimulation buffer (5 mM HEPES in HBSS at pH 7.4, 0.1% BSA) with IBMX (0.7 mM final). Compounds were dissolved in stimulation buffer and added to wells in increasing concentrations. Cells were incubated with the indicated compounds 20 minutes before addition of agonists (human BNP, human CNP or human proBNP) in various concentrations. Cells were stimulated for 20 minutes with agonist before the reactions were stopped (i.e. cells lysed) by adding the AlphaScreen Acceptor bead mix (Acceptor beads-anti-cGMP antibody and 0.5% Tween-20 in 5 mM HEPES buffer at pH 7.4). After 1 hour incubation, the Donor bead mix (Donor beads, biotinylated cGMP, 0.5% Tween-20 in 5 mM HEPES buffer at pH 7.4) was added (40 μl total volume) and incubation continued for 2 hours. The luminescence signals were analyzed quantitatively by reading of the plates on the EnVision® Multilabel Plate Reader (Perkin Elmer) using AlphaScreen emission 570 nm filter.
For orientation: Bead proximity is the source of the signal in Alpha formats.

The target of data set [2] is T2, human (h) natriuretic peptide receptor A (hNPR-A) (Homo sapiens, UniProt P16066).
T2 construct: expressed in transfected cells
T2 sequence (P16066 33-1061): T1 sequence (P16066 33-1061)
T2 sequence (P16860 27-134 partner): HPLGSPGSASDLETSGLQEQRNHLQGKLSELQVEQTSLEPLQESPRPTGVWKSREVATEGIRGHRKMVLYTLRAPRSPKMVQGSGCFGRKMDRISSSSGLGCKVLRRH
Put plainly: AlphaScreen assay for cGMP: proBNP-mediated NPR-A activity. It counts as cell-based. Particulars: conc. response of compound + 2 nM proBNP. As for the experimental part: as §1
as §2, with “Cells were stimulated for 20 minutes with agonist before the reactions were stopped (i.e. cells lysed) by adding the AlphaScreen Acceptor bead mix (Acceptor beads-anti-cGMP antibody and 0.5% Tween-20 in 5 mM HEPES buffer at pH 7.4). After 1 hour incubation, the Donor bead mix (Donor beads, biotinylated cGMP, 0.5% Tween-20 in 5 mM HEPES buffer at pH 7.4) was added (40 μl total volume) and incubation continued for 2 hours.” left out

In data set [3] the target is T3, NPR-A (Homo sapiens, UniProt P16066).
T3 construct: expressed in transfected cells; host or cells: HEK293 cells expressing NPR-A
T3 sequence (P16066 33-1061): T1 sequence (P16066 33-1061)
Put plainly: Whole-cell binding assays with 125I-ANP in intact NPR-A expressing HEK293 cells. As for the experimental part:
as §1
Binding assays were carried out in intact NPR-A expressing HEK293 cells as described in Dickey et al., J Biol Chem. 2009; 284: 19196-202.

Data set [4] has as its system HeLa cells. Briefly: MTT assay (cytotoxicity). It counts as cell-based. Particulars: 24 and 48 h, compared with compounds 3 and 11. As for the experimental part:
Cells were incubated for 24 and 48 h with increasing concentrations of the indicated compound. The data represent formazan formation (absorbance) as a percentage of the negative control (1% DMSO).
The MTT (3-(4,5-dimethylthiazol-2-yl)-2,5-diphenyltetrazolium bromide) tetrazolium reduction assay was used to measure cytotoxicity of the compounds in vitro. Viable cells with active metabolism convert MTT into a purple colored formazan product with an absorbance maximum near 570 nm. HeLa cells were plated in 96-well plates in culture medium (DMEM (Dulbecco's Modified Eagle's Medium, Gibco®, ThermoFischer Scientific) supplemented with 10% Fetal Bovine Serum (FBS), 100 U/ml penicillin, 0.1 mg/ml streptomycin) the day before experiments. Cells were incubated for 24 or 48 h at 37° C. with increasing concentrations of each compound (in 1% DMSO). 1% DMSO and 20 mM H2O2 in culture medium were used as negative and positive control, respectively. MTT solution at a final concentration of 0.45 mg/ml was added to the wells and cells incubated for 1 to 4 hours at 37° C. Solubilization solution (40% (vol/vol) dimethylformamide (DMF), 2% (vol/vol) glacial acetic acid and 16% (wt/vol) sodium dodecyl sulfate (SDS)) was added to each well to dissolve formazan crystals. Absorbance was measured at 570 nm.

On to `O=C(Cn1ncc(Cl)c(Cl)c1=O)c1ccc(Cl)cc1Cl` [Compound 11, 4,5-dichloro-2-[2-(2,4-dichlorophenyl)-2-oxo-ethyl]pyridazin-3-one], for which, in data set [1], the EC50 was 200 nM and the Emax was determined as 42.5%.

Take `O=C(Cn1ncc(Cl)cc1=O)c1ccc(Cl)s1` [Compound 8, 5-chloro-2-(2-(5-chlorothiophen-2-yl)-2-oxoethyl) pyridazin-3(2H)-one]: in data set [1], the EC50 was 1580 nM and the Emax was 27%.

On to `COc1ccc(C(=O)Cn2ncc(Cl)c(Cl)c2=O)cc1` [Compound 5, 4,5-dichloro-2-(2-(4-methoxyphenyl)-2-oxoethyl) pyridazin-3(2H)-one], for which, in data set [1], the EC50 was 3980 nM and the Emax was determined as 38.6%.

For `O=C(Cn1ncc(Cl)c(Cl)c1=O)NCCc1cnn(-c2ccccc2)c1` [Compound 16, 2-(4,5-dichloro-6-oxopyridazin-1(6H)-yl)-N-(2-(1-phenyl-1H-pyrazol-4-yl)ethyl)acetamide], in data set [1], the EC50 is 794 nM and the Emax stood at 41%.

For the compound `N#Cc1ccc(C(=O)Cn2ncc(Cl)c(Cl)c2=O)cc1` [Compound 6, 4-(2-(4,5-dichloro-6-oxopyridazin-1(6H)-yl)acetyl) benzonitrile], in data set [1], the EC50 is 2510 nM and the Emax is 44.1%.

As for `Cc1cc(C(=O)Cn2ncc(Cl)c(Cl)c2=O)ccc1Cl` [Compound 14, 4,5-dichloro-2-[2-(4-chloro-3-methyl-phenyl)-2-oxo-ethyl]pyridazin-3-one], in data set [1], the EC50 was 2510 nM and the Emax turned out to be 45.4%.

As for `O=C(Cn1ncc(Cl)c(Cl)c1=O)c1ccc2c(c1)CCCC2` [Compound 9], in data set [1], the EC50 is 1260 nM and the Emax came to 27.7%.

Regarding `O=C(Cn1ncc(Cl)c(Cl)c1=O)c1ccc(Cl)s1` [Compound 7], in data set [1], the EC50 is 251 nM and the Emax stood at 33.4%.

For `O=C(Cn1ncc(Cl)c(Cl)c1=O)NC1CC1c1cnn(-c2ccccc2)c1` (racemic) [Compound 18, rac-2-(4,5-dichloro-6-oxopyridazin-1(6H)-yl)-N-((1R,2S)-2-(1-phenyl-1H-pyrazol-4-yl)cyclopropyl)acetamide], in data set [1], the EC50 was 200 nM and the Emax stood at 30.7%.

For the compound `O=C(Cn1ncc(Br)c(Br)c1=O)c1ccc(Cl)cc1` [Compound 10], in data set [1], the EC50 is 79.4 nM and the Emax was 37%.

With `O=C(Cn1nccc(Cl)c1=O)c1ccc(Cl)cc1` [Compound 3, 4-chloro-2-(2-(4-chlorophenyl)-2-oxoethyl)pyridazin-3(2H)-one], in data set [1], the EC50 is 12600 nM and the Emax was found to be 48.6%.

In the case of `O=C(Cn1ncc(Cl)c(Cl)c1=O)c1ccc(Cl)c(F)c1` [Compound 12, 4,5-dichloro-2-[2-(4-chloro-3-fluoro-phenyl)-2-oxo-ethyl]pyridazin-3-one], in data set [1], the EC50 is 398 nM and the Emax was determined as 44.3%.

For the compound `CC(C)c1ccc(CCNC(=O)Cn2ncc(Cl)c(Cl)c2=O)cc1` [Compound 15, 2-(4,5-dichloro-6-oxopyridazin-1(6H)-yl)-N-(4-isopropylphenethyl)acetamide], in data set [1], the EC50 is 794 nM and the Emax amounted to 27.8%.

For the compound `Cc1cc(Cl)ccc1C(=O)Cn1ncc(Cl)c(Cl)c1=O` [Compound 13, 4,5-dichloro-2-[2-(4-chloro-2-methyl-phenyl)-2-oxo-ethyl]pyridazin-3-one], in data set [1], the EC50 is 100 nM and the Emax came out at 41%.

In the case of `O=C(Cn1ncc(Cl)c(Cl)c1=O)c1ccc(Cl)cc1` [Compound 2], the EC50 was 251 nM in data set [1]; 1000 nM in data set [2] (NPR-A-expressing HEK293 cells, read-out: -LOGEC50 (compound) (converted)); 2 nM in data set [3] (conc. response compound + 50 pM 125I-ANP, NPR-A HEK293 cells, read-out: -LogEC50 (compound) (converted)). Besides, the Emax in data set [1] stood at 45.3%; in data set [2] (percentage of maximum proBNP-mediated cGMP production, read-out: Max response), 99%; in data set [3] (compound + 50 pM 125I-ANP, response of 50 pM 125I-ANP defined as 100%, read-out: Max Response), 173%. Besides, in data set [3] (saturation binding, conc. response 125I-ANP + 10 μM compound), the “Fold change in Bmax” value came to 2.3. In data set [4], the “toxicity in MTT assay relative to corresponding dichloro compounds” value is given as “lower toxicity”.

As to `O=C(Cn1ncc(Cl)c(Cl)c1=O)Nc1cnn(-c2ccccc2)c1` [Compound 19, 2-(4,5-dichloro-6-oxopyridazin-1(6H)-yl)-N-(1-phenyl-1H-pyrazol-4-yl)acetamide], in data set [1], the EC50 is 1000 nM and the Emax was found to be 45.7%.

In the case of `O=C(Cn1ncc(Cl)c(Cl)c1=O)NCCc1c(Cl)cccc1Cl` [Compound 17, 2-(4,5-dichloro-6-oxopyridazin-1(6H)-yl)-N-(2,6-dichlorophenethyl)acetamide], in data set [1], the EC50 was 794 nM and the Emax was 39.4%.

With `O=C(Cn1ncc(Cl)cc1=O)c1ccc(Cl)cc1` [Compound 4, 5-chloro-2-(2-(4-chlorophenyl)-2-oxoethyl)pyridazin-3(2H)-one], in data set [1], the EC50 was 5010 nM and the Emax was 35.2%.

Consider `O=C(Cn1ncc(Cl)c(Cl)c1=O)NCc1cnn(-c2ccccc2)c1` [Compound 20, 2-(4,5-dichloro-6-oxopyridazin-1(6H)-yl)-N-((1-phenyl-1H-pyrazol-4-yl)methyl)acetamide], for which, in data set [1], the EC50 is 6310 nM and the Emax was 49.4%.

As to `O=C(Cn1ncc(Cl)c(Cl)c1=O)C12CC3CC(CC(C3)C1)C2` [Compound 1], in data set [1], the EC50 was 2510 nM and the Emax worked out at 53.1%.
